Test results as given in US20100203125A1, “SYNERGISTIC ANTIBACTERIAL FORMULATION AND A METHOD OF MAKING THE SAME” (priority 2004, published 2010).
In brackets after ≈: the same amount, converted by molar mass. Like-named read-outs stand apart in the source and are kept apart here. Each block holds one compound with its values, some of them ahead of it.

Assays:
[1] = Clinical Trial 2, comparative plasma concentration study; conditions: for Plasma concentration from the formulation compared with conventional separate dosing: human, in vivo
Method: Comparative studies were conducted on 24 healthy male patients who were pre-tested for non-allergic conditions against Betalactam and Cephalsporin antibiotics.

[2] = in vivo; cited from earlier work
[3] = cited from earlier work
[4] = in vivo, cited from earlier work; for Bioavailability after oral administration / Serum half-life / half life: human
plasma proteins = conditions: cited from earlier work
[5] = Plasma concentration levels of cefixime and dicloxacillin formulation (Table 4); conditions: in vivo
Streptococcus pneumoniae = conditions: cited from earlier work
Staphylococcus aureus = conditions: cited from earlier work
[6] = system: Staphylococcus epidermidis; conditions: cited from earlier work
Streptococcus pyogenes = conditions: cited from earlier work
Neisseria gonorrhoeae = conditions: cited from earlier work
E. coli [C1] = assay: Zone of inhibition study; type: cell-based; conditions: 37° C. 24 hours, excluding well diameter
Method: (§1) Quantitative methods of susceptibility testing that require measurements of zone diameters give the most precise estimates of antibiotic susceptibility. Zone of inhibition study was performed Cefixime and dicloxacillin combination with suitable concentration and compare with the zone of inhibition of individual antibiotic to study the synergy. Nutrient Agar plates (duplicate sets) were used for inoculation of microorganism culture using spread plate technique. Wells of 6.0 mm diameter were made in agar plate and test and standard antibiotics preparations were placed in the respective wells. Suitable control plates and plates with no antibiotics were simultaneously then inoculated after appropriate dilution on separate nutrient agar plates (duplicate sets) using spread plate technique. […] All the diameters [zone of inhibition] were measure excluding the well diameter. Four species of bacteria namely E. coli [C1], S. aureus [C2], Salmonella typhimurium [C3], and S. epidermidis [C4] were selected for zone of inhibition study. […] There was no zone of inhibitions found for control plates.

S. aureus [C2] = assay: Zone of inhibition study; type: cell-based; conditions: 37° C. 24 hours, excluding well diameter
Method: as §1

S. epidermidis [C4] = assay: Zone of inhibition study; type: cell-based; conditions: 37° C. 24 hours, excluding well diameter
Method: as §1

[7] = system: Salmonella typhimurium [C3]; assay: Zone of inhibition study; type: cell-based; conditions: 37° C. 24 hours, excluding well diameter
Method: as §1

Compound: C=CC1=C(C(=O)O)N2C(=O)[C@@H](NC(=O)/C(=N\OCC(=O)O)c3csc(N)n3)[C@H]2SC1 [Cefixime]
Plasma concentration from the formulation compared with conventional separate dosing [1]: better
Blood plasma conc ([1]; separate tablets (Cloxacillin 250 mg × 2, Cefixime 200 mg), 1 hrs): 0.46
Blood plasma conc ([1]; separate tablets (Cloxacillin 250 mg × 2, Cefixime 200 mg), 2 hrs): 1.23
Blood plasma conc ([1]; separate tablets (Cloxacillin 250 mg × 2, Cefixime 200 mg), 3 hrs): 1.52
Blood plasma conc ([1]; separate tablets (Cloxacillin 250 mg × 2, Cefixime 200 mg), 4 hrs): 1.79
Blood plasma conc ([1]; separate tablets (Cloxacillin 250 mg × 2, Cefixime 200 mg), 6 hrs): 1.14
Blood plasma conc ([1]; separate tablets (Cloxacillin 250 mg × 2, Cefixime 200 mg), 8 hrs): 0.88
Blood plasma conc ([1]; separate tablets (Cloxacillin 250 mg × 2, Cefixime 200 mg), 9 hrs): 0.72
Blood plasma conc ([1]; separate tablets (Cloxacillin 250 mg × 2, Cefixime 200 mg), 10 hrs): 0.6
Blood plasma conc ([1]; separate tablets (Cloxacillin 250 mg × 2, Cefixime 200 mg), 12 hrs): 0.5
Blood plasma conc ([1]; separate tablets (Cloxacillin 250 mg × 2, Cefixime 200 mg), 14 hrs): 0.36
Blood plasma conc ([1]; separate tablets (Cloxacillin 250 mg × 2, Cefixime 200 mg), 16 hrs): 0.2
Blood plasma conc ([1]; separate tablets (Cloxacillin 250 mg × 2 at 6 hour interval, Cefixime 200 mg), 0 hrs, average of 24): 0
Blood plasma conc ([1]; synergetic formulation (Cloxacillin 500 mg, Cefixime in combination), 0 hrs, average of 24): 0
Blood plasma conc ([1]; synergetic formulation (Cloxacillin 500 mg, Cefixime in combination), 1 hrs): 0.7
Blood plasma conc ([1]; synergetic formulation (Cloxacillin 500 mg, Cefixime in combination), 2 hrs): 1.4
Blood plasma conc ([1]; synergetic formulation (Cloxacillin 500 mg, Cefixime in combination), 3 hrs): 1.58
Blood plasma conc ([1]; synergetic formulation (Cloxacillin 500 mg, Cefixime in combination), 4 hrs): 2.01
Blood plasma conc ([1]; synergetic formulation (Cloxacillin 500 mg, Cefixime in combination), 6 hrs): 1.52
Blood plasma conc ([1]; synergetic formulation (Cloxacillin 500 mg, Cefixime in combination), 8 hrs): 1.03
Blood plasma conc ([1]; synergetic formulation (Cloxacillin 500 mg, Cefixime in combination), 9 hrs): 0.91
Blood plasma conc ([1]; synergetic formulation (Cloxacillin 500 mg, Cefixime in combination), 10 hrs): 0.72
Blood plasma conc ([1]; synergetic formulation (Cloxacillin 500 mg, Cefixime in combination), 12 hrs): 0.6
Blood plasma conc ([1]; synergetic formulation (Cloxacillin 500 mg, Cefixime in combination), 14 hrs): 0.34
Blood plasma conc ([1]; synergetic formulation (Cloxacillin 500 mg, Cefixime in combination), 16 hrs): 0.18
Acute toxicity [2]: negligibly low
Solubility in dehydrated alcohol [3]: sparingly soluble
Solubility in ethyl acetate [3]: practically insoluble
Solubility in methyl alcohol [3]: freely soluble
Solubility in water [3]: slightly soluble
Oral absorption ([4]; po): 50%
Oral dose absorbed from the gastrointestinal tract ([4]; po): 40-50%
Eliminated by nonrenal mechanisms [4]: Up to 60%
Plasma half-life [4]: 180 min
Urinary Excretion [4]: 34-48%
Vol Distribution [4]: 0.30 ± 0.03
Plasma protein binding (plasma proteins; Table 1): 60-70%
concentration at 0 h [5]: 0 ng/mL
concentration at 0.5 h [5]: 360 ng/mL
concentration at 1 h [5]: 520 ng/mL
concentration at 2 h [5]: 1340 ng/mL
concentration at 3 h [5]: 1620 ng/mL
concentration at 4 h [5]: 1840 ng/mL
concentration at 6 h [5]: 1560 ng/mL
concentration at 8 h [5]: 980 ng/mL
concentration at 10 h [5]: 600 ng/mL
concentration at 12 h [5]: 500 ng/mL
concentration at 14 h [5]: 350 ng/mL
concentration at 16 h [5]: 200 ng/mL
concentration at 20 h [5]: 0 ng/mL
concentration at 24 h [5]: 0 ng/mL

Compound: Cc1onc(-c2ccccc2Cl)c1C(=O)N[C@@H]1C(=O)N2[C@@H]1SC(C)(C)[C@@H]2C(=O)O [Cloxacillin sodium, chlorphenylmethyl isoxazolyl penicillin sodium]
Bioavailability after oral administration ([4]; po): 37-60%

Compound: Cc1onc(-c2ccccc2Cl)c1C(=O)N[C@@H]1C(=O)N2[C@@H]1SC(C)(C)[C@@H]2C(=O)O [Cloxacillin]
Plasma concentration from the formulation compared with conventional separate dosing [1]: significantly better plasma concentration
MIC90 (Streptococcus pneumoniae): 0.25 µg/mL (≈ 0.574 µM)
MIC90 (Staphylococcus aureus): 0.1 µg/mL (≈ 0.229 µM)
MIC90 [6]: 0.1 µg/mL (≈ 0.229 µM)
MIC90 (Streptococcus pyogenes): 0.1 µg/mL (≈ 0.229 µM)
MIC90 (Neisseria gonorrhoeae): 0.1 µg/mL (≈ 0.229 µM)
Serum half-life / half life [4]: 24 to 48 min
Urinary clearance rate ([4]; iv): 162.2 mL/min
Cmax [4]: 8 mg/L
Half life [4]: 38 min
Plasma half life [4]: 0.5 h-0.65
Plasma half-life [4]: 30 to 90 min
Plasma protein binding (plasma proteins; plasma): 93-95%

concentration at 0 h (in vivo): 0 ng/mL
concentration at 0.5 h (in vivo): 700 ng/mL
concentration at 1 h (in vivo): 810 ng/mL
concentration at 2 h (in vivo): 2260 ng/mL
concentration at 3 h (in vivo): 3100 ng/mL
concentration at 4 h (in vivo): 3940 ng/mL
concentration at 6 h (in vivo): 4100 ng/mL
concentration at 8 h (in vivo): 2960 ng/mL
concentration at 10 h (in vivo): 2400 ng/mL
concentration at 12 h (in vivo): 1380 ng/mL
concentration at 14 h (in vivo): 630 ng/mL
concentration at 16 h (in vivo): 300 ng/mL
concentration at 20 h (in vivo): 0 ng/mL
concentration at 24 h (in vivo): 0 ng/mL
Compound: Cc1onc(-c2c(Cl)cccc2Cl)c1C(=O)N[C@@H]1C(=O)N2[C@@H]1SC(C)(C)[C@@H]2C(=O)O [Dicloxacillin]
Zone of inhibition (E. coli [C1]): 9 mm
Zone of inhibition (S. aureus [C2]): 15 mm
Zone of inhibition (S. epidermidis [C4]): 15 mm
Zone of inhibition [7]: 10 mm
Bioavailability after oral administration ([4]; po): 60-80%
Oral absorption ([4]; po): 60-80%
Excreted into the urine [4]: about 60%
Plasma half life [4]: 0.5 to 1 h
Plasma half-life [4]: 30 to 90 min
Urinary Excretion [4]: 60%
Vol Distribution [4]: 0.1 mL/g
Volume of distribution [4]: 0.1 mL/g
Bound to plasma proteins (plasma proteins; plasma): 90-98%
Plasma protein binding (plasma proteins; plasma): 90-98%

Compound: Cc1onc(-c2ccccc2)c1C(=O)NC1C(=O)N2[C@@H]1SC(C)(C)[C@@H]2C(=O)[O-].[Na+] (stereo partly drawn) [Oxacillin sodium]
Bioavailability after oral administration ([4]; po): 30-35%

Compound: Cc1onc(-c2ccccc2)c1C(=O)N[C@@H]1C(=O)N2[C@@H]1SC(C)(C)[C@@H]2C(=O)O [oxacillin]
Serum half-life / half life [4]: 18 to 48 min
Bound to plasma proteins (plasma proteins; plasma): 89-94%
